How the values were obtained:
[1] = Comparative active ester reactivity study with HOPO nucleophile; conditions: 1,2-HOPO 1 eq., 22±2° C.
Description: (§1) General Experimental Protocol for Comparative Active Ester Reactivity Study with HOPO or HOA Nucleophiles
(§2) To a 4 mL scintillation vial containing Compound A-E (in respective experiments; 1 eq.) was added a stir bar followed by 150 μL of HPLC grade acetonitrile. In another 4 mL scintillation vial containing a respective nucleophile (1 eq.) was added 280 μL HPLC grade water. The solutions were combined and allowed to stir at room temperature (22±2° C.) for 4 hours. Timed aliquots at time (T)=15, 30, 60, 120 and 240 minutes were taken and analyzed by HPLC-MS using elution method 1 (Table 1).

[2] = Active ester reactivity study with amino acids (N-Acetyl-L-Cysteine); conditions: N-Acetyl-L-Cysteine 5 eq., 22±2° C.
Description: (§3) General Experimental Protocol for Nucleophilic Reactivity Study with Amino Acids
as §2, with “A or C (1” for “A-E (in respective experiments; 1”, “70” for “150”, “amino acid (1-5” for “nucleophile (1”, “130” for “280”, “water followed by diisopropylethylamine (5 eq.).” for “water.”, “6).” for “1).”

[3] = Active ester reactivity study with amino acids (Z-Ser-OH); conditions: Z-Ser-OH 1 eq., 22±2° C.
Description: as §3
as §2, with “A or C (1” for “A-E (in respective experiments; 1”, “70” for “150”, “amino acid (1-5” for “nucleophile (1”, “130” for “280”, “water followed by diisopropylethylamine (5 eq.).” for “water.”, “6).” for “1).”

DMSO stability study = format: physicochemical
Description: To a 4 mL scintillation vial containing Compound A-E (in respective experiments; 4 mg) was added a stir bar followed by 500 μL of anhydrous dimethyl sulfoxide and was allowed to stir at room temperature (22±2° C.) for 4 hours. Timed aliquots at time (T)=15, 30, 60, 120 and 240 minutes were taken, dissolved in water to achieve 2% DMSO composition and analyzed by HPLC-MS using elution method 1 (Table 5).

[4] = Nucleophilic reactivity study with L-Lysine; conditions: L-Lysine 5 equiv
Description: General Experimental Protocol for Nucleophilic Reactivity Study with L-Lysine
To a 4 mL scintillation vial containing Compound A-E (in respective experiments; 1 eq.) was added a stir bar followed by 70 μL of HPLC grade acetonitrile. In another 4 mL scintillation vial containing L-Lysine monohydrochloride (5 eq.) was added 130 μL HPLC grade water followed by diisopropylethylamine (5 eq.). The solutions were combined and allowed to stir at room temperature (22±2° C.). Timed aliquots at time (T)=15, 30, 60 and 120 minutes were taken and analyzed by HPLC-MS using elution method 1 (Table 2).

[5] = Comparative active ester reactivity study with HOA nucleophile (benzhydroxamic acid); conditions: Benzhydroxamic Acid 1 eq., 22±2° C.
Description: as §1, §2

[6] = Active ester reactivity study with amino acids (Z-Arg-OH); conditions: Z-Arg-OH 1 eq., 22±2° C.
Description: as §3
as §2, with “A or C (1” for “A-E (in respective experiments; 1”, “70” for “150”, “amino acid (1-5” for “nucleophile (1”, “130” for “280”, “water followed by diisopropylethylamine (5 eq.).” for “water.”, “6).” for “1).”

pH stability study = format: physicochemical; conditions: 20° C.
Description: To a 4 mL scintillation vial containing Compound A-E (in respective experiments; 0.8 mg) was added 4 mL of either a pH 3, pH 5 pH 7 or pH 9 buffer to create a 0.2 mg/mL solution. 2 mL of this solution was added to a 2 mL HPLC vial and placed in the auto sampler of an HPLC-MS at 20° C. Timed aliquots at time (T)=15, 30, 60, 120, 240 and 480 minutes were taken and analyzed by HPLC-MS using elution method 1 (Table 3). […]
pH 3 Buffer: Citric acid/Na2HPO4 (79.45 mL 0.1 M-citric acid and 20.55 mL 0.2-Na2HPO4) pH 5 Buffer: Citric acid/Na2HPO4 (48.50 mL 0.1 M-citric acid and 51.50 mL 0.2-Na2HPO4) pH 7 Buffer: Citric acid/Na2HPO4 (17.65 mL 0.1 M-citric acid and 82.35 mL 0.2-Na2HPO4) pH 9 Buffer: Sodium Carbonate/Sodium Bicarbonate (10 mL 0.1 M-Na2CO3 and 90 mL 0.1-NaHCO3)

[7] = Comparative active ester reactivity study with HOA nucleophile (N-hydroxy-N-methylbenzamide); conditions: N-Hydroxy-N-methylbenzamide 1 eq., 22±2° C.
Description: as §1, §2

O=C(CCc1cccnc1)Oc1c(Cl)cccc1Cl [Compound A, 2,6-Dichlorophenyl-3-(pyridin-3-yl)propanoate]
% Active Ester Remaining ([1]; 15 min): 99.32%
% Active Ester Remaining ([1]; 30 min): 98.56%
% Active Ester Remaining ([1]; 60 min): 96.90%
% Active Ester Remaining ([1]; 120 min): 95.51%
% Active Ester Remaining ([1]; 240 min): 93.74%
% Active Ester Remaining ([2]; 15 min): 100%
% Active Ester Remaining ([2]; 30 min): 99.86%
% Active Ester Remaining ([2]; 60 min): 99.84%
% Active Ester Remaining ([2]; 120 min): 99.70%
% Active Ester Remaining ([2]; 240 min): 82.52%
% Active Ester Remaining ([3]; 15 min): 97.56%
% Active Ester Remaining ([3]; 30 min): 97.14%
% Active Ester Remaining ([3]; 60 min): 96.30%
% Active Ester Remaining ([3]; 120 min): 93.35%
% Active Ester Remaining ([3]; 240 min): 91.55%
% Active Ester Remaining in DMSO at 22 ± 2° C. (DMSO stability study; 15 min): 100%
% Active Ester Remaining in DMSO at 22 ± 2° C. (DMSO stability study; 30 min): 99.95%
% Active Ester Remaining in DMSO at 22 ± 2° C. (DMSO stability study; 60 min): 99.81%
% Active Ester Remaining in DMSO at 22 ± 2° C. (DMSO stability study; 120 min): 99.75%
% Active Ester Remaining in DMSO at 22 ± 2° C. (DMSO stability study; 240 min): 99.60%
% Active Ester Remaining ([4]; 15 min, 22±2° C.): 60.44%
% Active Ester Remaining ([4]; 30 min, 22±2° C.): 26.31%
% Active Ester Remaining ([4]; 60 min, 22±2° C.): 0.98%
% Active Ester Remaining ([4]; 120 min, 22±2° C.): 0%
% Active Ester Remaining ([4]; DMAP 10 mol % added, 15 min): 0.86%
% Active Ester Remaining ([4]; DMAP 10 mol % added, 30 min): 0%
% Active Ester Remaining ([5]; 15 min): 97.05%
% Active Ester Remaining ([5]; 30 min): 95.97%
% Active Ester Remaining ([5]; 60 min): 92.36%
% Active Ester Remaining ([5]; 120 min): 86.65%
% Active Ester Remaining ([5]; 240 min): 78.07%
% Active Ester Remaining ([6]; 15 min): 94.23%
% Active Ester Remaining ([6]; 30 min): 90.34%
% Active Ester Remaining ([6]; 60 min): 86.74%
% Active Ester Remaining ([6]; 120 min): 78.45%
% Active Ester Remaining ([6]; 240 min): 73.31%
% Remaining (pH stability study; pH 3 buffer, 15 min): 100%
% Remaining (pH stability study; pH 3 buffer, 30 min): 100%
% Remaining (pH stability study; pH 3 buffer, 60 min): 100%
% Remaining (pH stability study; pH 3 buffer, 120 min): 100%
% Remaining (pH stability study; pH 3 buffer, 240 min): 100%
% Remaining (pH stability study; pH 3 buffer, 480 min): 100%
% Remaining (pH stability study; pH 5 buffer, 15 min): 100%
% Remaining (pH stability study; pH 5 buffer, 30 min): 100%
% Remaining (pH stability study; pH 5 buffer, 60 min): 100%
% Remaining (pH stability study; pH 5 buffer, 120 min): 100%
% Remaining (pH stability study; pH 5 buffer, 240 min): 100%
% Remaining (pH stability study; pH 5 buffer, 480 min): 100%
% Remaining (pH stability study; pH 7 buffer, 15 min): 100%
% Remaining (pH stability study; pH 7 buffer, 30 min): 100%
% Remaining (pH stability study; pH 7 buffer, 60 min): 100%
% Remaining (pH stability study; pH 7 buffer, 120 min): 99.35%
% Remaining (pH stability study; pH 7 buffer, 240 min): 98.75%
% Remaining (pH stability study; pH 7 buffer, 480 min): 97.82%
% Remaining (pH stability study; pH 9 buffer, 15 min): 98.15%
% Remaining (pH stability study; pH 9 buffer, 30 min): 95.27%
% Remaining (pH stability study; pH 9 buffer, 60 min): 92.61%
% Remaining (pH stability study; pH 9 buffer, 120 min): 87.81%
% Remaining (pH stability study; pH 9 buffer, 240 min): 79.28%
% Remaining (pH stability study; pH 9 buffer, 480 min): 61.56%
% Active Ester Remaining ([7]; 15 min): 99.57%
% Active Ester Remaining ([7]; 30 min): 99.24%
% Active Ester Remaining ([7]; 60 min): 98.36%
% Active Ester Remaining ([7]; 120 min): 96.11%
% Active Ester Remaining ([7]; 240 min): 92.22%

O=C(CCc1cccnc1)Oc1c(F)c(F)cc(F)c1F [Compound C, 2,3,5,6-Tetrafluorophenyl-3-(pyridin-3-yl)propanoate]
% Active Ester Remaining ([1]; 15 min): 40.02%
% Active Ester Remaining ([1]; 30 min): 17.81%
% Active Ester Remaining ([1]; 60 min): 9.78%
% Active Ester Remaining ([1]; 120 min): 5.19%
% Active Ester Remaining ([1]; 240 min): 0.94%
% Active Ester Remaining ([2]; 15 min): 95.12%
% Active Ester Remaining ([2]; 30 min): 91.95%
% Active Ester Remaining ([2]; 60 min): 85.25%
% Active Ester Remaining ([2]; 120 min): 56.62%
% Active Ester Remaining ([2]; 240 min): 0%
% Active Ester Remaining ([3]; 15 min): 41.75%
% Active Ester Remaining ([3]; 30 min): 28.90%
% Active Ester Remaining ([3]; 60 min): 10.96%
% Active Ester Remaining ([3]; 120 min): 2.89%
% Active Ester Remaining ([3]; 240 min): 0.12%
% Active Ester Remaining in DMSO at 22 ± 2° C. (DMSO stability study; 15 min): 96.55%
% Active Ester Remaining in DMSO at 22 ± 2° C. (DMSO stability study; 30 min): 94.71%
% Active Ester Remaining in DMSO at 22 ± 2° C. (DMSO stability study; 60 min): 93.91%
% Active Ester Remaining in DMSO at 22 ± 2° C. (DMSO stability study; 120 min): 92.60%
% Active Ester Remaining in DMSO at 22 ± 2° C. (DMSO stability study; 240 min): 88.57%
% Active Ester Remaining ([4]; 15 min, 22±2° C.): 0%
% Active Ester Remaining ([5]; 15 min): 58.86%
% Active Ester Remaining ([5]; 30 min): 45.60%
% Active Ester Remaining ([5]; 60 min): 32.39%
% Active Ester Remaining ([5]; 120 min): 18.88%
% Active Ester Remaining ([5]; 240 min): 9.26%
% Active Ester Remaining ([6]; 15 min): 22.34%
% Active Ester Remaining ([6]; 30 min): 3.47%
% Active Ester Remaining ([6]; 60 min): 0.36%
% Active Ester Remaining ([6]; 120 min): 0%
% Remaining (pH stability study; pH 3 buffer, 15 min): 98.19%
% Remaining (pH stability study; pH 3 buffer, 30 min): 93.92%
% Remaining (pH stability study; pH 3 buffer, 60 min): 89.61%
% Remaining (pH stability study; pH 3 buffer, 120 min): 82.13%
% Remaining (pH stability study; pH 3 buffer, 240 min): 68.98%
% Remaining (pH stability study; pH 3 buffer, 480 min): 48.46%
% Remaining (pH stability study; pH 5 buffer, 15 min): 96.06%
% Remaining (pH stability study; pH 5 buffer, 30 min): 86.91%
% Remaining (pH stability study; pH 5 buffer, 60 min): 79.07%
% Remaining (pH stability study; pH 5 buffer, 120 min): 65.20%
% Remaining (pH stability study; pH 5 buffer, 240 min): 45.26%
% Remaining (pH stability study; pH 5 buffer, 480 min): 20.20%
% Remaining (pH stability study; pH 7 buffer, 15 min): 94.61%
% Remaining (pH stability study; pH 7 buffer, 30 min): 83.82%
% Remaining (pH stability study; pH 7 buffer, 60 min): 73.25%
% Remaining (pH stability study; pH 7 buffer, 120 min): 54.53%
% Remaining (pH stability study; pH 7 buffer, 240 min): 27.99%
% Remaining (pH stability study; pH 7 buffer, 480 min): 5.60%
% Remaining (pH stability study; pH 9 buffer, 15 min): 7.60%
% Remaining (pH stability study; pH 9 buffer, 30 min): 1.71%
% Remaining (pH stability study; pH 9 buffer, 60 min): 0.49%
% Remaining (pH stability study; pH 9 buffer, 120 min): 0%
% Active Ester Remaining ([7]; 15 min): 81.12%
% Active Ester Remaining ([7]; 30 min): 72.43%
% Active Ester Remaining ([7]; 60 min): 61.68%
% Active Ester Remaining ([7]; 120 min): 50.09%
% Active Ester Remaining ([7]; 240 min): 37.80%

From patent publication US20240139333A1, “2,6-DICHLOROPHENYL ESTER COMPOUNDS AND USE THEREOF” (Fusion Pharmaceuticals Inc., priority 2021, published 2024)
